For test [1], the target named is purified human Factor XIa (Homo sapiens (Human), UniProt P03951). Put plainly: Factor XIa enzyme inhibition assay (chromogenic substrate S-2366).
Test [2] deals with purified human plasma kallikrein (Homo sapiens (Human), UniProt P03952). Nature of the test: Plasma kallikrein enzyme inhibition assay (chromogenic substrate S-2302). The test is classed as biochemical.
The mark [3] stands for this setting: read-out: Factor XIa Ki, measured at 25° C.
Where [4] appears, read: measured at 25° C. (no asterisk).

One may read the Ki as the dissociation constant of the complex between target and ligand, obtained from inhibition or displacement.

Structures are written as SMILES. Where a name gives a salt, the structure may show the parent alone. Read-outs that look alike come from different tables or passages of the source. Bounds are passed on as bounds.

Chain of purified human Factor XIa (P03951 388-625): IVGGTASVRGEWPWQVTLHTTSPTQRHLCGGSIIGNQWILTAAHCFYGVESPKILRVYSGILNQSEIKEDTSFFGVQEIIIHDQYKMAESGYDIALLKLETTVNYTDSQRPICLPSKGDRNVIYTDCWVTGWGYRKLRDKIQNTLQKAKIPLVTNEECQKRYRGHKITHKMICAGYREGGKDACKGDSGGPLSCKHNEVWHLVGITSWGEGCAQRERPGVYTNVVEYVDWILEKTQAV
Chain of purified human Factor XIa (P03951 19-387 partner): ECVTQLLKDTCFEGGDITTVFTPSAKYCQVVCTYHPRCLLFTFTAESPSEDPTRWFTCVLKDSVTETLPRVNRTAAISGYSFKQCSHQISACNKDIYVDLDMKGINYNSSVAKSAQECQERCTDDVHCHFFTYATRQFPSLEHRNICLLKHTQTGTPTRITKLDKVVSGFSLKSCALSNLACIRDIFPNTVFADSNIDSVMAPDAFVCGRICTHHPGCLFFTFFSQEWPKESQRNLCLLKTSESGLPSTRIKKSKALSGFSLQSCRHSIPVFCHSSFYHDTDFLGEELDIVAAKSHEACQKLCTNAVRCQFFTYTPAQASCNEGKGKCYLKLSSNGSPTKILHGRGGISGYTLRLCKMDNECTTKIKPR
Chain of purified human plasma kallikrein (P03952 391-638): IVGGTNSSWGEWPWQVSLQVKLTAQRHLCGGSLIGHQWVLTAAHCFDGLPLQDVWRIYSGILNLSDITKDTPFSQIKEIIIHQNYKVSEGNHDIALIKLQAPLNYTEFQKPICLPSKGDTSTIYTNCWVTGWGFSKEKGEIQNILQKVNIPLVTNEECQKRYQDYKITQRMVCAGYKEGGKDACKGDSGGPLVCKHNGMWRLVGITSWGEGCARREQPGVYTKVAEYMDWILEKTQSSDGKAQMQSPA
Chain of purified human plasma kallikrein (P03952 20-390 partner): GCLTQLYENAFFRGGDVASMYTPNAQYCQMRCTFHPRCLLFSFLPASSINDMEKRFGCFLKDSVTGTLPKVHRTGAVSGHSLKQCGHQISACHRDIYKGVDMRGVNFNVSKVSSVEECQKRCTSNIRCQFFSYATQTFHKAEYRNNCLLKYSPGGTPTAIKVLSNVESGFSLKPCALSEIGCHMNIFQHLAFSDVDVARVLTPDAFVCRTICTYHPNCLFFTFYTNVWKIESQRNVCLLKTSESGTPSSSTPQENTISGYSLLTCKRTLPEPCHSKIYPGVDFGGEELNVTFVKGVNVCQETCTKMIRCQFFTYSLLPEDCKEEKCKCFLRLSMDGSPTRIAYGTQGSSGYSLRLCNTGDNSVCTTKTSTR

In the case of `COC(=O)[C@H]1CC[C@@H](NC(=O)C2c3cccc(-c4cncnc4)c3CCN2C(=O)c2cn(-c3cccc(Cl)c3F)nn2)CC1` (stereo partly drawn) [Example 132, (1R,4R)-methyl 4-(2-(1-(3-chloro-2-fluorophenyl)-1H-1,2,3-triazole-4-carbonyl)-5-(pyrimidin-5-yl)-1,2,3,4-tetrahydroisoquinoline-1-carboxamido) cyclohexanecarboxylate], the values for the Ki in test [1] (setting [3]) and in test [2] (measured at 37° C. (*)) were 124 nM and 1620 nM, respectively.

On to `COc1cccc2c1CCN(C(=O)c1cn(-c3cccc(Cl)c3F)nn1)C2C(=O)Nc1ccc(C(=O)O)cc1` (racemic) [Example 275, 4-(2-(1-(3-chloro-2-fluoroplienyl)-1H-1,2,3-triazole-4-carbonyl)-5-methoxy-1,2,3,4-tetrahydroisoquinoline-1-carboxamido)benzoic acid, TFA salt], for which the values for the Ki in test [1] and in test [2] (setting [4]) were 10.7 nM and 11.8 nM, respectively.

As to `O=C(O)c1ccc(NC(=O)C2c3cccc(N4CCC(N5CCCC5)CC4)c3CCN2C(=O)C2CC(c3cccc(Cl)c3)=NO2)cc1` (single isomer, unassigned) [Example 203, 4-(2-(3-(3-chlorophenyl)-4,5-dihydroisoxazole-5-carbonyl)-5-(4-(pyrrolidin-1-yl)piperidin-1-yl)-1,2,3,4-tetrahydroisoquinoline-1-carboxamido)benzoic acid, 2 TFA salt], the Ki in test [1] is under 5 nM; in test [2] (setting [4]), 1.29 nM.

On to `COC1CCN(c2cccc3c2CCN(C(=O)c2cnn(-c4cccc(Cl)c4F)c2)[C@@H]3C(=O)Nc2ccc(C(=O)O)cc2)CC1` [Example 315, (S)-4-(2-(1-(3-chloro-2-fluorophenyl)-1H-pyrazole-4-carbonyl)-5-(4-methoxypiperidin-1-yl)-1,2,3,4-tetrahydroisoquinoline-1-carboxamido)benzoic acid, TFA salt], for which the results for the Ki in test [1] (setting [3]) and in test [2] (setting [4]) were under 5 nM and 19.6 nM, respectively.

`CN1CCN(c2cccc3c2CCN(C(=O)C2CC(c4cccc(Cl)c4F)=NO2)C3C(=O)Nc2ccc(C(=O)O)cc2)CC1=O` (single isomer, unassigned) [Example 283, 4-(2-(3-(3-chloro-2-fluorophenyl)-4,5-dihydroisoxazole-5-carbonyl)-5-(4-methyl-3-oxopiperazin-1-yl)-1,2,3,4-tetrahydroisoquinoline-1-carboxamido)benzoic acid, TFA salt]: the Ki is 8.27 nM in test [1] (read-out: Factor XIa Ki, measured at 25° C., TFA salt) and 75.3 nM in test [2] (measured at 25° C. (no asterisk), TFA salt).

Consider `CN(C)C1CCN(c2cccc3c2CCN(C(=O)c2cn(-c4cccc(Cl)c4F)cn2)[C@H]3C(=O)Nc2ccc(C(=O)O)cc2)CC1` (single isomer, unassigned) [Example 54, bis-TFA salt], for which the Ki in test [1] (setting [3]) stood at 8.83 nM; in test [2] (setting [4]) it was 50.4 nM.

Take `COC1CCN(c2cccc3c2CCN(C(=O)c2cnn(-c4cccc(Cl)c4F)c2N)[C@H]3C(=O)Nc2ccc(C(=O)O)cc2)CC1` [Example 286, (R)-4-(2-(5-amino-1-(3-chloro-2-fluorophenyl)-1H-pyrazole-4-carbonyl)-5-(4-methoxypiperidin-1-yl)-1,2,3,4-tetrahydroisoquinoline-1-carboxamido)benzoic acid, TFA salt]: the Ki in test [1] (setting [3]) came to 266 nM; in test [2] (setting [4]), 3290 nM.

Consider `Cc1ncn(-c2cccc3c2CCN(C(=O)[C@H]2CC(c4cccc(Cl)c4F)=NO2)[C@@H]3C(=O)Nc2ccc(C(=O)O)cc2)n1` [Example 250, 4-((S)-2-((R)-3-(3-Chloro-2-fluorophenyl)-4,5-dihydroisoxazole-5-carbonyl)-5-(3-methyl-1H-1,2,4-triazol-1-yl)-1,2,3,4-tetrahydroisoquinoline-1-carboxamido)benzoic acid, TFA salt], for which the Ki was under 5 nM in test [1] (setting [3]) and 6.8 nM in test [2] (measured at 37° C. (*)).

As to `CN1CCN(c2cccc3c2CCN(C(=O)C2CC(c4cccc(Cl)c4)=NO2)C3C(=O)Nc2ccc(C(=O)O)cc2)CC1` (single isomer, unassigned) [Example 216, 4-(2-(3-(3-chlorophenyl)-4,5-dihydroisoxazole-5-carbonyl)-5-(4-methylpiperazin-1-yl)-1,2,3,4-tetrahydroisoquinoline-1-carboxamido)benzoic acid, 2 TFA salt], the Ki was under 5 nM in test [1] and 0.36 nM in test [2] (setting [4]).

The values above are taken from US9738655B2, “Tetrahydroisoquinolines containing substituted azoles as factor XIa inhibitors” (BRISTOL-MYERS SQUIBB COMPANY, priority 2013, dated 2017).
